This note sets out measurements from US8088806B2 (Achillion Pharmaceuticals, Inc., priority 2005, dated 2012).

The subject of one assay is HCV replicon. Description: Replicon based assay of HCV replication inhibition (NPT ELISA). The class given is cell-based, Hepatitis C virus. Conditions: Hepatitis C virus, Huh-7, 72 h, Table III; Huh-7 HCV replicon-containing cells, three days; read-out: Activity. In short, it runs like this: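 NPT (neomycin phosphotransferase) content, proportional to replicon replication, quantified by capture ELISA on day four. Before that, replicon-bearing Huh-7 cells in G418-free screening medium were exposed three days at 37° C to compound, typically six doses from 10 to 0.03 micromolar, with equal DMSO across wells.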
For orientation: Replicon systems follow genome replication, usually without infectious particles.
Take `CCCCCCCc1ccc(Nc2nc(Cc3cccc(F)c3)cs2)cc1` [compound 519, 4-(3-fluorobenzyl)-N-(4-heptylphenyl)thiazol-2-amine]: the EC50 is 1000 to 10000 nM. The same measure, in the same setting: the figure for `CCCCCOc1ccc(Nc2nc(-c3cncc(C#N)c3)cs2)cc1C(F)(F)F` [compound 520, 5-(2-(3-(trifluoromethyl)-4-(pentyloxy)phenylamino)thiazol-4-yl)pyridine-3-carbonitrile] is under 1000 nM; for `CCCCCOc1ccc(Nc2nc(-c3ccc[n+]([O-])c3)cs2)cc1C(F)(F)F` [compound 521] it is under 1000 nM.

`CCCCCCCCOc1ccc(Nc2nc(-c3ccc[n+]([O-])c3)cs2)cc1` [compound 522]: the EC50 is under 1000 nM. On the same count and under the same terms, with `CCCCCCCOc1ccc(Nc2nc(-c3ccc(NC)nc3)cs2)cc1` [compound 523, 5-(2-(4-(heptyloxy)phenylamino)thiazol-4-yl)-N-methylpyridin-2-amine] the figure was under 1000 nM; with `CCCCCCCCc1ccc(Nc2nc(-c3ccc[n+]([O-])c3)cs2)cc1` [compound 524], under 1000 nM; with `CCCCCCCOc1ccc(Nc2nc(-c3ccc[n+]([O-])c3)cs2)cc1` [compound 525], under 1000 nM. Still for that read-out and setting: with `CCCCCCCCOc1ccc(Nc2nc(-c3ccc(F)nc3)cs2)cc1C(F)(F)F` [compound 526, N-(3-(trifluoromethyl)-4-(octyloxy)phenyl)-4-(6-fluoropyridin-3-yl)thiazol-2-amine] the figure was under 1000 nM; with `CCCCCOc1ccc(Nc2nc(-c3ccc(F)nc3)cs2)cc1F` [compound 527, N-(3-fluoro-4-(pentyloxy)phenyl)-4-(6-fluoropyridin-3-yl)thiazol-2-amine], under 1000 nM; with `Fc1ccc(-c2csc(Nc3ccc(OCCCC4CCCC4)c(C(F)(F)F)c3)n2)cn1` [compound 528, N-(4-(3-cyclopentylpropoxy)-3-(trifluoromethyl)phenyl)-4-(6-fluoropyridin-3-yl)thiazol-2-amine], under 1000 nM.

As to `CCCCCN(C)c1ccc(Nc2nc(-c3ccc(F)nc3)cs2)cc1C(F)(F)F` [compound 529, 2-(trifluoromethyl)-N4-(4-(6-fluoropyridin-3-yl)thiazol-2-yl)-N1-methyl-N1-pentylbenzene-1,4-diamine], the EC50 is under 1000 nM. On the same count and under the same terms, with `Fc1ccc(-c2csc(Nc3ccc(OCC4CCCCC4)c(F)c3)n2)cn1` [compound 530, N-(4-(cyclohexylmethoxy)-3-fluorophenyl)-4-(6-fluoropyridin-3-yl)thiazol-2-amine] the figure was under 1000 nM; with `CCCC/C=C\CCOc1ccc(Nc2nc(-c3cccnc3)cs2)cc1C(F)(F)F` [compound 531, N-(4-((Z)-oct-3-enyloxy)-3-(trifluoromethyl)phenyl)-4-(pyridin-3-yl)thiazol-2-amine], under 1000 nM. Still for that read-out and setting: with `CCCC/C=C\CCOc1ccc(Nc2nc(-c3ccc(C)nc3)cs2)cc1C(F)(F)F` [compound 532, N-(4-((Z)-oct-3-enyloxy)-3-(trifluoromethyl)phenyl)-4-(6-methylpyridin-3-yl)thiazol-2-amine] the figure was under 1000 nM. Regarding `CCCC/C=C\CCOc1ccc(Nc2nc(-c3ccc(F)cc3)cs2)cc1C(F)(F)F` [compound 533, N-(4-((Z)-oct-3-enyloxy)-3-(trifluoromethyl)phenyl)-4-(4-fluorophenyl)thiazol-2-amine], the EC50 is under 1000 nM. Still for that read-out and setting: with `CCCCCOc1ccc(Nc2nc(-c3ccc4c(c3)OCO4)cs2)cc1C(F)(F)F` [compound 534, 4-(benzo[d][1,3]dioxol-6-yl)-N-(3-(trifluoromethyl)-4-(pentyloxy)phenyl)thiazol-2-amine] the figure was under 1000 nM. On the same count and under the same terms, with `CCCCCOc1ccc(Nc2nc(-c3ccc(NC)nc3)cs2)cc1C(F)(F)F` [compound 535, 5-(2-(3-(trifluoromethyl)-4-(pentyloxy)phenylamino)thiazol-4-yl)-N-methylpyridin-2-amine] the figure was under 1000 nM.

With `CCCCCCCCOc1ccc(Nc2nc(-c3ccc(NC)nc3)cs2)cc1C(F)(F)F` [compound 536, 5-(2-(3-(trifluoromethyl)-4-(octyloxy)phenylamino)thiazol-4-yl)-N-methylpyridin-2-amine], the EC50 is under 1000 nM. The same measure, in the same setting: with `CNc1ccc(-c2csc(Nc3ccc(OC4CCCC4)c(C(F)(F)F)c3)n2)cn1` [compound 537, 5-(2-(4-(cyclopentyloxy)-3-(trifluoromethyl)phenylamino)thiazol-4-yl)-N-methylpyndin-2-amine] the figure was under 1000 nM; with `CCCCCOc1ccc(Nc2nc(-c3cnc4ccccc4c3)cs2)cc1C(F)(F)F` [compound 538, N-(3-(trifluoromethyl)-4-(pentyloxy)phenyl)-4-(quinolin-3-yl)thiazol-2-amine], under 1000 nM; with `CCCCCCCCOc1ccc(Nc2nc(-c3cnc4ccccc4c3)cs2)cc1C(F)(F)F` [compound 539, N-(3-(trifluoromethyl)-4-(octyloxy)phenyl)-4-(quinolin-3-yl)thiazol-2-amine], under 1000 nM. Same read-out and setting: the figure for `CCCCCCCCOc1ccc(Nc2nc(-c3ccc(N(C)C)nc3)cs2)cc1C(F)(F)F` [compound 541, 5-(2-(3-(trifluoromethyl)-4-(octyloxy)phenylamino)thiazol-4-yl)-N,N-dimethylpyridin-2-amine] is under 1000 nM; for `CCCCCOc1ccc(Nc2nc(/C=C/c3cccc(Cl)c3)cs2)cc1C(F)(F)F` [compound 542, 4-(3-chlorostyryl)-N-(3-(trifluoromethyl)-4-(pentyloxy)phenyl)thiazol-2-amine] it is under 1000 nM.

Take `CCCCCOc1ccc(Nc2nc(-c3cc4cccnc4nc3O)cs2)cc1C(F)(F)F` [compound 543, 3-(2-(3-(trifluoromethyl)-4-(pentyloxy)phenylamino)thiazol-4-yl)-l,8-naphthyridin-2-ol]: the EC50 was in the range of 1000 to 10000 nM.

The assay is the same for the next values; noted with them: Hepatitis C virus, replicon based assay of HCV replication inhibition; Table II; read-out: Activity.
On to `CCCCCCCCN(C)c1ccc(Nc2nc(Cc3cccnc3)cs2)cc1C(F)(F)F` [compound 500, 2-(trifluoromethyl)-N^1-methyl-N^1-octyl-N^4-(4-((pyridin-3-yl)methyl)thiazol-2-yl)benzene-1,4-diamine], for which the EC50 is under 1000 nM. Still for that read-out and setting: the figure for `CCCCCCCCOc1ccc(Nc2nc(Cc3cccnc3)cs2)cc1` [compound 501, N-(4-(octyloxy)phenyl)-4-((pyridin-3-yl)methyl)thiazol-2-amine] is 1000 to 10000 nM. On the same count and under the same terms, with `CCCCCCCCN(C)c1ccc(Nc2nc(Cc3cccnc3)cs2)cc1` [compound 503, N^1-methyl-N^1-octyl-N^4-(4-((pyridin-3-yl)methyl)thiazol-2-yl)benzene-1,4-diamine] the figure was over 10000 nM; with `CCCCCCCc1ccc(Nc2nc(Cc3cccnc3)cs2)cc1` [compound 504, N-(4-heptylphenyl)-4-((pyridin-3-yl)methyl)thiazol-2-amine], 1000 to 10000 nM.

Turning to `CCCCCOc1ccc(Nc2nc(-c3cncnc3)cs2)cc1C(F)(F)F` [compound 505, N-(3-(trifluoromethyl)-4-(pentyloxy)phenyl)-4-(pyrimidin-5-yl)thiazol-2-amine], the EC50 was under 1000 nM.

Regarding `Fc1cc(Nc2nc(-c3cncnc3)cs2)ccc1OCC1CCCCC1` [compound 506, N-(4-(cyclohexylmethoxy)-3-fluorophenyl)-4-(pyrimidin-5-yl)thiazol-2-amine], the EC50 was under 1000 nM. The same measure, in the same setting: with `CCCCCCCCOc1ccc(Nc2nc(-c3cncnc3)cs2)cc1` [compound 507, N-(4-(octyloxy)phenyl)-4-(pyrimidin-5-yl)thiazol-2-amine] the figure was under 1000 nM; with `Cc1ccc(-c2csc(Nc3ccc(OCC4CCCCC4)c(F)c3)n2)cn1` [compound 508, N-(4-(cyclohexylmethoxy)-3-fluorophenyl)-4-(6-methylpyridin-3-yl)thiazol-2-amine], under 1000 nM; with `Fc1ccc(-c2csc(Nc3ccc(OCC4CCCCC4)c(F)c3)n2)cc1` [compound 509, N-(4-(cyclohexylmethoxy)-3-fluorophenyl)-4-(4-fluorophenyl)thiazol-2-amine], under 1000 nM. The same measure, in the same setting: with `CCCCCOc1ccc(Nc2nc(-c3ccc(C#N)nc3)cs2)cc1C(F)(F)F` [compound 510, 5-(2-(3-(trifluoromethyl)-4-(pentyloxy)phenylamino)thia-zol-4-yl)pyridin-2-carbonitrile] the figure was under 1000 nM; with `N#Cc1ccc(-c2csc(Nc3ccc(OCC4CCCCC4)c(F)c3)n2)cn1` [compound 511, 5-(2-(4-(cyclohexylmethoxy)-3-fluorophenylamino)thiazol-4-yl)pyridine-2-carbonitrile], over 10000 nM. In the case of `CCCCCCCCOc1ccc(Nc2nc(-c3ccc(C#N)nc3)cs2)cc1` [compound 512, 5-(2-(4-(octyloxy)phenylamino)thia-zol-4-yl)pyridine-2-carbonitrile], the EC50 was under 1000 nM.

As for `CCCCCCCCOc1ccc(Nc2nc(Cc3ccccc3)cs2)cc1` [compound 513, 4-benyl-N-(4-(octyloxy)phenyl)thiazol-2-amine], the EC50 is over 10000 nM.

In the case of `CCCCCOc1ccc(Nc2nc(Cc3ccccc3)cs2)cc1C(F)(F)F` [compound 514, 4-benzyl-N-(3-(trifluoromethyl)-4-(pentyloxy)phenyl)thiazol-2-amine], the EC50 was over 10000 nM. The same measure, in the same setting: the figure for `CCCCCCCc1ccc(Nc2nc(Cc3ccccc3)cs2)cc1` [compound 515, 4-benzyl-N-(4-heptylphenyl)thiazol-2-amine] is over 10000 nM; for `CCCCCCCCOc1ccc(Nc2nc(Cc3cccc(F)c3)cs2)cc1` [compound 516, 4-(3-fluorobenzyl)-N-(4-(octyloxy)phenyl)thiazol-2-amine] it is over 10000 nM.

With `CCCCCOc1ccc(Nc2nc(Cc3cccc(F)c3)cs2)cc1C(F)(F)F` [compound 517, 4-(3-fluorobenzyl)-N-(3-(trifluoromethyl)-4-(pentyloxy)phenyl)thiazol-2-amine], the EC50 is 1000 to 10000 nM.

`CCCCCCCCN(C)c1ccc(Nc2nc(Cc3cccc(F)c3)cs2)cc1C(F)(F)F` [compound 518, N^4-(4-(3-fluorobenzyl)thiazol-2-yl)-2-(trifluoromethyl)-N^1-methyl-N^1-octylbenzene-1,4-diamine]: the EC50 was in the range of 1000 to 10000 nM.
